Test results published in the Deep4Chem optical property database.
Each block holds one compound with its values, some of them ahead of it.

Assay: solvent given as SMILES

SMILES: O=P1(c2ccccc2)C(c2cc(C(F)(F)F)cc(C(F)(F)F)c2)=Cc2c3ccc4cccc5ccc(c6cc(-c7ccc(N(c8ccccc8)c8ccccc8)cc7)n1c26)c3c45 (configuration not stated)
emission maximum (in C1CCCCC1): 558 nm | emission maximum (in C1CCOC1): 620 nm | emission maximum (in C1COCCO1): 595 nm | emission maximum (in CC#N): 645 nm | emission maximum (in CC(C)=O): 635 nm | emission maximum (in CO): 636 nm | emission maximum (in Cc1ccccc1): 586 nm | emission maximum (in ClC(Cl)Cl): 603 nm | emission maximum (in ClCCl): 622 nm

SMILES: CC[N+]1(CC)CN2C(C)=CC(C)=C(C(=O)[O-])C2=N1
emission maximum (in CN(C)C=O): 453 nm | emission maximum (in O): 449 nm

SMILES: Cc1cc(O)c(C(=O)/C=C/c2ccc(Cl)cc2)c(=O)o1
emission maximum (in CC#N): 497 nm | emission maximum (in ClCCl): 478 nm

SMILES: CN1c2cc3nc4cc(Br)c(Br)cc4nc3cc2N(C)C1(C)C
emission maximum (in CCO): 500 nm

SMILES: COCCC1=Cc2nc1ccc1[nH]c(cc1CCOC)c1nc(c(N)cc3[nH]c2cc3CCOC)C(CCOC)=C1
emission maximum (in Cc1ccccc1): 748 nm

SMILES: Cn1c2cc(N3CCCCC3)c(F)cc2c(=O)c2cc(F)c(N3CCCCC3)cc21
emission maximum (in CCO): 455 nm

SMILES: CCCCCCCCCCCCSc1cc2c3c(ccc4c5c(SCCCCCCCCCCCC)cc6c7c(ccc(c1c34)c75)C(=O)N(C1CCCCC1)C6=O)C(=O)N(C1CCCCC1)C2=O
emission maximum (in ClC(Cl)Cl): 655 nm

SMILES: COc1ccc(-c2ccc3c(c2)c2cc(-c4ccc(OC)cc4)ccc2n3-c2ccc(C(=O)c3ccc4sc5ccccc5c4c3)nc2)cc1
emission maximum (in Cc1ccccc1): 487.2 nm | emission maximum (in c1cc(-n2c3ccccc3c3ccccc32)cc(-n2c3ccccc3c3ccccc32)c1): 493 nm

SMILES: CC(C)(C)c1ccc2c(c1)c1cc(C(C)(C)C)cc3c1n2-c1cc(-c2ccc(F)cc2)cc2c1B3c1cc(C(C)(C)C)cc3c4cc(C(C)(C)C)ccc4n-2c13
emission maximum (in Cc1ccccc1): 496.94 nm

SMILES: CCn1c2ccccc2c2cc(/C=C/c3cc(/C=C/c4ccc5c(c4)c4ccccc4n5CC)ncn3)ccc21
emission maximum (in C1CCOC1): 463 nm | emission maximum (in CCOC(C)=O): 460 nm | emission maximum (in CN(C)C=O): 500 nm | emission maximum (in Cc1ccccc1): 440 nm | emission maximum (in ClCCl): 492 nm

SMILES: CC(C)(C(=O)c1ccc(N2c3ccccc3Oc3ccccc32)cc1)C(=O)c1ccc(N2c3ccccc3Oc3ccccc32)cc1
emission maximum (in Cc1ccccc1): 562 nm | emission maximum (in c1ccc2c(c1)c1ccccc1n2-c1ccc(-c2ccc(-n3c4ccccc4c4ccccc43)cc2)cc1): 520.81 nm

SMILES: Oc1cccc(/N=C/c2ccccc2Oc2ccccc2)c1
emission maximum (in C1CCCCC1): 402 nm | emission maximum (in C1COCCO1): 406 nm | emission maximum (in CC#N): 395 nm | emission maximum (in CC(C)=O): 415 nm | emission maximum (in CC(C)CO): 387 nm | emission maximum (in CC(C)O): 406 nm | emission maximum (in CCCCC): 403 nm | emission maximum (in CCCCCCCCO): 410 nm | emission maximum (in CCCCCCCO): 410 nm | emission maximum (in CCCCCCO): 400 nm | emission maximum (in CCCCO): 416 nm | emission maximum (in CCCCOC(C)=O): 404 nm | emission maximum (in CCCO): 395 nm | emission maximum (in CCOC(C)=O): 420 nm | emission maximum (in CCOCC): 404 nm | emission maximum (in CO): 380 nm | emission maximum (in CS(C)=O): 396 nm | emission maximum (in Cc1ccccc1): 412 nm | emission maximum (in Cc1ccccc1C): 403 nm | emission maximum (in ClC(Cl)Cl): 415 nm | emission maximum (in ClCCl): 407 nm | emission maximum (in N#Cc1ccccc1): 385 nm | emission maximum (in OCCO): 418 nm | emission maximum (in c1ccccc1): 414 nm

The next lines start with the values.

emission maximum (in ClCCl): 415 nm
SMILES: CC(C)(C)NC(=O)c1cccc2ccc3c4ccc(Cl)cc4c4cc(Cl)ccc4c3c12

emission maximum (in ClC(Cl)Cl): 434 nm
SMILES: F[B-]1(F)OC(c2ccc(C(F)(F)F)cc2)=Cc2ccc3ccccc3[n+]21

emission maximum (in ClC(Cl)Cl): 517.5 nm
SMILES: CC1=CC(C)=[N+]2C1=C(c1ccc(I)cc1)c1c(C)cc(C)n1[B-]2(Oc1ccccc1)Oc1ccccc1

emission maximum (in C1CCCCC1): 472 nm | emission maximum (in CC#N): 510 nm | emission maximum (in CCO): 549 nm
SMILES: COc1ccc2c(c1)-c1ccccc1C2=O

emission maximum (in C1CCCCC1): 425.81 nm | emission maximum (in CCCCCO): 442.64 nm | emission maximum (in CCCCO): 446.26 nm | emission maximum (in CCCO): 443.26 nm | emission maximum (in CCO): 447.14 nm | emission maximum (in CO): 449.43 nm
SMILES: ClC(Cl)=C1c2ccccc2C(C2(Cl)c3ccccc3C(=C(Cl)Cl)c3ccccc32)c2ccccc21 (configuration not stated)

emission maximum (in ClCCl): 417 nm
SMILES: CC(C)(C)c1ccc(-n2c(-c3ccc(-c4cccc(-c5c(-c6ccccc6)nc6ccccn56)c4)cc3)nc3c4ccccc4c4ccccc4c32)cc1

emission maximum (in CCCCCCCCCCCCCC): 473 nm
SMILES: Cc1ccsc1-c1ccc(-c2ccc(-c3sccc3C)s2)s1

emission maximum (in C1CCCCC1): 392 nm | emission maximum (in C1COCCO1): 399 nm | emission maximum (in CC#N): 420 nm | emission maximum (in CCO): 442 nm | emission maximum (in CCOC(C)=O): 403 nm | emission maximum (in CN(C)C=O): 417 nm | emission maximum (in CO): 452 nm | emission maximum (in c1ccccc1): 398 nm
SMILES: Cc1cc2ccc(-c3cccc4cccc(-c5ccc6cc(C)c(=O)oc6c5)c34)cc2oc1=O

emission maximum (in ClCCl): 457 nm
SMILES: Cc1ccc(C2=Nc3cccc4[n+]3[B-](F)(O2)OC(c2ccc(C)cc2)=N4)cc1

emission maximum (in ClCCl): 427 nm
SMILES: c1ccc2cc(-c3c4ccccc4c(-c4ccc(-c5ccc(-n6c7ccccc7c7ccccc76)cc5)cc4)c4ccccc34)ccc2c1

emission maximum (in ClC(Cl)Cl): 499 nm
SMILES: F[B-]1(F)OC(c2ccc(N3CCCCC3)cc2)=Cc2cccc[n+]21

emission maximum (in ClCCl): 520 nm
SMILES: CCCCCCCCCCCCN1C(=O)c2c(c3ccc4cc(-c5ccc(C#N)cc5)c(OC)cc4c3c3c2ccc2cc(-c4ccc(C#N)cc4)c(OC)cc23)C1=O
